This is an account of results in US20220047559A1, “DRUG COMPOSITION FOR TREATING BREAST CANCER AND METHOD FOR MANUFACTURING THE SAME” (National Chiao Tung University, priority 2020, published 2022).

Usually IC50 stands for the point on the concentration scale where inhibition reaches its midpoint.

One data set relates to SK-BR-3 cells. In words: Cytotoxicity test (MTS, cell survival rate, IC50, combination index). It counts as cell-based. The settings on record: Homo sapiens, 48 hours. On the procedure:
Culture SK-BR-3 cells in a 24-well culture plate, and each well has 10^4 cells. After cells have attached to the culture plate for 20-24 hours, remove the culture liquid, and rinse the cells with PBS. Use Dulbecco's Modified Eagle Medium (DMEM) to dilute the drug compositions GAN, CCM, CHC/GAN, CHC/CCM, and CHC/GAN-CCM. Add the diluted drug compositions to the cells, and co-culture each drug composition and the cells for 48 hours. Remove DMEM, and flush the product of co-culture with PBS. Add MTS and DMEM (1:5 (v/v)) into each well of the cell culture plate, and culture them for 2-4 hours. Use a microplate reader to measure the absorptivity of the light having a wavelength of 490 nm, whereby to estimate the cell survival rates. The cell survival rate can be used to determine the half inhibitory concentration (IC50) and the combination index (CI) of two drugs. CHC/GAN and CHC/CCM can more effectively kill cells than the drugs in form of free molecules. […] Therefore, the drug composition carried by CHC nanoparticles can more effectively treat breast cancer in smaller dosage. Especially, while ganetespib is carried by CHC nanocarriers, the treating effect may be increased 60-70 times. […] The results also indicate that the effective concentration of the drug composition of the present invention may be lower than that of the conventional drug composition. […]

Data set [1] is described as follows: Release of drugs from dialysis bag in pH 7.4 PBS buffer solution. The data set is classed as physicochemical. As to conditions: 37° C. As for the experimental part: FIG. 3A and FIG. 3B show the release curves of ganetespib. FIG. 3C and FIG. 3D show the release curves of curcumin For free ganetespib, the dialysis bag stops release after 8 hours, and about 73% ganetespib is released. For ganetespib in the drug composition, the dialysis bag continues release until as long as 12 hours has elapsed, and about 80% ganetespib is released. As indicated by the arrows in FIG. 3B, CHC/GAN where ganetespib is encapsulated by CHC releases ganetespib more slowly and has higher content of ganetespib. It is because CHC protects ganetespib from being damaged by the environment and makes ganetespib release slowly. For free curcumin, although the dialysis bag have continued releasing curcumin for as long as 168 hours, the accumulated released curcumin is only about 8%. The slow release rate of free curcumin is owing to low aqueous solubility of curcumin Low aqueous solubility of curcumin also leads to low bioavailability of curcumin. The release rate of the curcumin in CHC/CCM is about the same as the free curcumin. The accumulated released curcumin of the curcumin in CHC/CCM is about 9%, slightly higher than that of the free curcumin. However, it can be seen in FIG. 3D: the difference therebetween increases with time.

Consider `COc1cc(/C=C/C(=O)CC(=O)/C=C/c2ccc(O)c(OC)c2)ccc1O` [CCM, curcumin], for which, in the data set on SK-BR-3 cells (curcumin), the IC50 amounted to 12 µg/mL. For the same compound, the accumulated released curcumin result in data set [1] (168 hours) is “about 8%”.

`CC(C)c1cc(-c2n[nH]c(=O)n2-c2ccc3c(ccn3C)c2)c(O)cc1O` [GAN, ganetespib]: in the data set with SK-BR-3 cells (ganetespib), the IC50 turned out to be 0.00188 µg/mL. Moreover, the “time after which release of ganetespib stops” value in data set [1] came out at 8 h. Further, the ganetespib released entry in data set [1] (at the time release stops) was “about 73%”.
